Test results: publication PMC8413904 (Pharmacology Research & Perspectives, 2021)

Assays:
[1] = system: cultured rat brain cortical neurons; test: Na^+ assay (CoroNa green‐AM); assay type: cell-based
Experimental: All animal experimental procedures and housing have been approved by the Institutional Animal Care and Use Committee (IACUC) protocol #18‐015 of Virginia Tech. Embryonic day 18 (E18) rat brain tissue samples were obtained from adult pregnant SD rats. Rat brain primary cortical, striatal, and cerebellar neurons were cultured on poly‐d‐lysine coated 96‐well plates for 14 days in vitro (DIV14) before using for the experiments. Primary rat neuron culture was performed as previously published.[44] Briefly, each well of a 96 well plate was loaded with 50 000 cells and grown in 200 µl neurobasal media supplemented with B27, glutamax, penicillin, streptomycin. One hundred microliters of media was replaced with fresh media once in 4 days. Eight to thirteen fetus were obtained from each pregnant rat. Brain tissue from these fetus were pooled to obtain the neurons. Cortical, striatal, and cerebellar neuron assays were carried out at different time points.
For Na^+ assay, DIV14 neurons were washed with HBSS and treated with freshly prepared CoroNa green‐AM dye (ThermoFisher, cat # C36676) and incubated for 45 min in 37°C. […] RFU values of background control and treatments were plotted to identify the effect of CNS4 on NMDA‐induced Na^+ flux in the neurons.

GluN1/2C = GluN1/2C (UniProt P35439+Q14957); test: TEVC electrophysiology dose–response in xenopus oocytes; assay type: cell-based; design: host or cells: Xenopus oocytes (cRNA injection)
Description: NMDAR constructs: cDNA encoding the NMDAR1a subunit (GluN1a) was obtained from Dr. Nakanishi. cDNA encoding the GluN2B (pci_sepGluN2B) was developed initially in the Malinow lab[36] and purchased from Addgene (cat# 23998). cDNA encoding the GluN2C and GluN2D were purchased from GenScript. Mutated GluN1, 2A and 2B cDNA constructs capable of assembling as GluN1/2A/2B triheteromeric (1/2AB) receptors[37] were obtained from Dr. Paoletti (Laboratoire de Neurobiologie, CNRS). […] Plasmids were linearized with NotI (GluN1a) or Avrll (GluN2B), or BstB1 (GluN2C and GluN2D) and transcribed in vitro with T7 (GluN1a, GluN1/2A, GluN2B, GluN2C, & GluN2D) RNA polymerase using the mMessage mMachine transcription kits (Invitrogen by Thermo Fisher Scientific). […]
Electrophysiological responses were measured using a standard two‐microelectrode voltage‐clamp workstation [Warner Instruments (Hamden, Connecticut) model OC‐725C] designed to provide a fast clamp of large cells. […] Response magnitude was determined in xenopus oocytes expressing different NMDAR subunits (GluN1/2A, 1/2B, 1/2C, 1/2D, and 1/2A/2B) by the steady plateau response elicited by bath application of different agonist concentrations. […] Statistical significance was determined at the overall alpha level .05, using appropriate statistical methods as described in each figure captions.

GluN1/2A [2] = molecular target: T1, GluN1/2A (UniProt P35439+Q12879); test: as above; assay type: cell-based; conditions: 100 µM CNS4, −60 mV, average ± SEM
Description: (§1) NMDAR constructs: cDNA encoding the NMDAR1a subunit (GluN1a) was obtained from Dr. Nakanishi. cDNA encoding the GluN2B (pci_sepGluN2B) was developed initially in the Malinow lab[36] and purchased from Addgene (cat# 23998). cDNA encoding the GluN2C and GluN2D were purchased from GenScript. Mutated GluN1, 2A and 2B cDNA constructs capable of assembling as GluN1/2A/2B triheteromeric (1/2AB) receptors[37] were obtained from Dr. Paoletti (Laboratoire de Neurobiologie, CNRS). […] Plasmids were linearized with NotI (GluN1a) or Avrll (GluN2B), or BstB1 (GluN2C and GluN2D) and transcribed in vitro with T7 (GluN1a, GluN1/2A, GluN2B, GluN2C, & GluN2D) RNA polymerase using the mMessage mMachine transcription kits (Invitrogen by Thermo Fisher Scientific).
(§2) Stage IV frog oocytes were obtained from Xenopus‐I. NMDAR subunit cRNAs were suspended in nuclease‐free sterile water. GluN1A, GluN2B, GluN2C, GluN2D, and GluN1/2A/2B cRNAs were mixed in a ratio of 1:1–3. 50 nl of the final cRNA mixture was microinjected (40–70 ng total) into the oocyte cytoplasm. Oocytes were incubated in ND‐96 solution at 18^◦C prior to electrophysiological recordings (1–3 days).
Electrophysiological responses were measured using a standard two‐microelectrode voltage‐clamp workstation [Warner Instruments (Hamden, Connecticut) model OC‐725C] designed to provide a fast clamp of large cells. The recording buffer contained 116 mM NaCl, 2 mM KCl, 0.3 mM BaCl2, and 5 mM HEPES, pH 7.4. Response magnitude was determined in xenopus oocytes expressing different NMDAR subunits (GluN1/2A, 1/2B, 1/2C, 1/2D, and 1/2A/2B) by the steady plateau response elicited by bath application of different agonist concentrations. […] Response amplitudes for functional NMDARs were generally between 0.1 and 2 μA. […] Dose–response relationships were fit to an appropriate curve‐fitting equation using GraphPad Prism‐7. Nonlinear regression was used to calculate EC50 and/or percentage maximal response. Curve fittings were done using the following equations as performed in the previous studies[34], [39]: Y = 100/(1 + 10^(LogEC50‐X)) or Y = Bottom + (Top − Bottom)/(1+10^(LogEC50‐X)). Statistical significance was determined at the overall alpha level .05, using appropriate statistical methods as described in each figure captions.

[3] = molecular target: GluN1/2A/2B triheteromeric (1/2AB) receptors (Rattus norvegicus, UniProt P35439+Q00959+Q01097); test: as above; conditions: 100 µM CNS4, −60 mV, average ± SEM
Description: as §1, §2
(§3) Electrophysiological responses were measured using a standard two‐microelectrode voltage‐clamp workstation [Warner Instruments (Hamden, Connecticut) model OC‐725C] designed to provide a fast clamp of large cells. The recording buffer contained 116 mM NaCl, 2 mM KCl, 0.3 mM BaCl2, and 5 mM HEPES, pH 7.4. Response magnitude was determined in xenopus oocytes expressing different NMDAR subunits (GluN1/2A, 1/2B, 1/2C, 1/2D, and 1/2A/2B) by the steady plateau response elicited by bath application of different agonist concentrations. […] Response amplitudes for functional NMDARs were generally between 0.1 and 2 μA. […] Dose–response relationships were fit to an appropriate curve‐fitting equation using GraphPad Prism‐7. Nonlinear regression was used to calculate EC50 and/or percentage maximal response. […] Statistical significance was determined at the overall alpha level .05, using appropriate statistical methods as described in each figure captions.

GluN1/2D = GluN1/2D (UniProt O15399+P35439); test: as above; assay type: cell-based; design: host or cells: Xenopus oocytes (cRNA injection)
Description: as §1, §2, §3

GluN1/2B = GluN1/2B (Rattus norvegicus, UniProt P35439+Q00960); test: Current–voltage (I–V) relationship, TEVC in xenopus oocytes
Experimental: (§4) GluN1A, GluN2B, GluN2C, GluN2D, and GluN1/2A/2B cRNAs were mixed in a ratio of 1:1–3. 50 nl of the final cRNA mixture was microinjected (40–70 ng total) into the oocyte cytoplasm. Oocytes were incubated in ND‐96 solution at 18^◦C prior to electrophysiological recordings (1–3 days).
(§5) After obtaining a steady‐state response to different agonist applications, agonist plus 100 μM CNS4 or agonist plus 40 μM MgCl2 plus 100 μM CNS4 was applied. […] Data points were aligned by least‐square fit by third‐order polynomial equation (Y = B0 + B1*X +B2*X ^2 + B3*X ^3), except for GluN1/2B that needed a fourth‐order polynomial equation.

GluN1/2A [4] = molecular target: T1, GluN1/2A; test: as above
Experimental: as §4, §5

[5] = 100 µM CNS4, 0.3 µM glutamate + 100 µM glycine, −60 mV, average ± SEM
[6] = higher concentration (100 & 300 µM) of glutamate, almost no effect
[7] = 0.3 µM glutamate + 100 µM glycine
[8] = 100 µM glutamate + 100 µM glycine
[9] = 300 µM glutamate + 100 µM glycine
[10] = 100 µM CNS4, 100 µM glutamate + 100 µM glycine, −90 to +30 mv

GluN1/2B, sequence (Q00960 27-1482, other chains not shown): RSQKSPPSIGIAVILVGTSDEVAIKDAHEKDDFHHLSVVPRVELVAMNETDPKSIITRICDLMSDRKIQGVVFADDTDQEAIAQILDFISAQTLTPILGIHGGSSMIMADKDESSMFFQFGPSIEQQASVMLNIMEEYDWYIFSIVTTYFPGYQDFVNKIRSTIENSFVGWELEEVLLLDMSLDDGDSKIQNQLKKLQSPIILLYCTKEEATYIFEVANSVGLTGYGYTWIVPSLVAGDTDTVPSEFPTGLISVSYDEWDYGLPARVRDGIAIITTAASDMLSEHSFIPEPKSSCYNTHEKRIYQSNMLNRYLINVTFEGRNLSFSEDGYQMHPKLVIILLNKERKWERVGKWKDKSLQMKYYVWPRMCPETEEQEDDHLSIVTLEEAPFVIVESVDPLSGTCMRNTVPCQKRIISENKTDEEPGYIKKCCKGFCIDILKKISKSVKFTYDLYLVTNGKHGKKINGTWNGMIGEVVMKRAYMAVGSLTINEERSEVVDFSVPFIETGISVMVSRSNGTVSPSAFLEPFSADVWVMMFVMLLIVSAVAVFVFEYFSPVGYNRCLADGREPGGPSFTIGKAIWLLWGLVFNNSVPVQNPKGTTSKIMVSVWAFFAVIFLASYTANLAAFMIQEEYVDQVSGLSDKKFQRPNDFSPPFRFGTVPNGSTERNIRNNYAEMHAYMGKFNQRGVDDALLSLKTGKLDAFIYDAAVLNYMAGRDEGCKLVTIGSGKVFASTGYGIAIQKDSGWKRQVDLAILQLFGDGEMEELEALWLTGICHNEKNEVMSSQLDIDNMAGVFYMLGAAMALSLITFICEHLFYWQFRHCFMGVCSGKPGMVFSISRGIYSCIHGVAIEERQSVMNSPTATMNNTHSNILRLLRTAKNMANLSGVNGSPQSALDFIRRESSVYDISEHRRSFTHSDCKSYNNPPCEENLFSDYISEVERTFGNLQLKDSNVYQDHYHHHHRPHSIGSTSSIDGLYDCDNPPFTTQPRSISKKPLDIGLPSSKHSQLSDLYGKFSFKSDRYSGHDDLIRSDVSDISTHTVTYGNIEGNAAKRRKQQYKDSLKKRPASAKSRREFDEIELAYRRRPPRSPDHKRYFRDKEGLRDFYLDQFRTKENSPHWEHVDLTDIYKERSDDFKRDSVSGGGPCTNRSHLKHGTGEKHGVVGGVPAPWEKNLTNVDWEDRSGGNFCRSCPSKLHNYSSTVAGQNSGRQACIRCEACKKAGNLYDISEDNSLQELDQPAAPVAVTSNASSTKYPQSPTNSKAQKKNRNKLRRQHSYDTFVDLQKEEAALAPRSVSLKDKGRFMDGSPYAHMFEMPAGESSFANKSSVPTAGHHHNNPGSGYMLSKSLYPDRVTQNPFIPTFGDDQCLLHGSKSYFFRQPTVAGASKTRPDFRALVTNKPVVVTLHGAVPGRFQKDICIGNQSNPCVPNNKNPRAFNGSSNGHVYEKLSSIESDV
GluN1/2A/2B triheteromeric (1/2AB) receptors, sequence (Q01097 27-1482, other chains not shown): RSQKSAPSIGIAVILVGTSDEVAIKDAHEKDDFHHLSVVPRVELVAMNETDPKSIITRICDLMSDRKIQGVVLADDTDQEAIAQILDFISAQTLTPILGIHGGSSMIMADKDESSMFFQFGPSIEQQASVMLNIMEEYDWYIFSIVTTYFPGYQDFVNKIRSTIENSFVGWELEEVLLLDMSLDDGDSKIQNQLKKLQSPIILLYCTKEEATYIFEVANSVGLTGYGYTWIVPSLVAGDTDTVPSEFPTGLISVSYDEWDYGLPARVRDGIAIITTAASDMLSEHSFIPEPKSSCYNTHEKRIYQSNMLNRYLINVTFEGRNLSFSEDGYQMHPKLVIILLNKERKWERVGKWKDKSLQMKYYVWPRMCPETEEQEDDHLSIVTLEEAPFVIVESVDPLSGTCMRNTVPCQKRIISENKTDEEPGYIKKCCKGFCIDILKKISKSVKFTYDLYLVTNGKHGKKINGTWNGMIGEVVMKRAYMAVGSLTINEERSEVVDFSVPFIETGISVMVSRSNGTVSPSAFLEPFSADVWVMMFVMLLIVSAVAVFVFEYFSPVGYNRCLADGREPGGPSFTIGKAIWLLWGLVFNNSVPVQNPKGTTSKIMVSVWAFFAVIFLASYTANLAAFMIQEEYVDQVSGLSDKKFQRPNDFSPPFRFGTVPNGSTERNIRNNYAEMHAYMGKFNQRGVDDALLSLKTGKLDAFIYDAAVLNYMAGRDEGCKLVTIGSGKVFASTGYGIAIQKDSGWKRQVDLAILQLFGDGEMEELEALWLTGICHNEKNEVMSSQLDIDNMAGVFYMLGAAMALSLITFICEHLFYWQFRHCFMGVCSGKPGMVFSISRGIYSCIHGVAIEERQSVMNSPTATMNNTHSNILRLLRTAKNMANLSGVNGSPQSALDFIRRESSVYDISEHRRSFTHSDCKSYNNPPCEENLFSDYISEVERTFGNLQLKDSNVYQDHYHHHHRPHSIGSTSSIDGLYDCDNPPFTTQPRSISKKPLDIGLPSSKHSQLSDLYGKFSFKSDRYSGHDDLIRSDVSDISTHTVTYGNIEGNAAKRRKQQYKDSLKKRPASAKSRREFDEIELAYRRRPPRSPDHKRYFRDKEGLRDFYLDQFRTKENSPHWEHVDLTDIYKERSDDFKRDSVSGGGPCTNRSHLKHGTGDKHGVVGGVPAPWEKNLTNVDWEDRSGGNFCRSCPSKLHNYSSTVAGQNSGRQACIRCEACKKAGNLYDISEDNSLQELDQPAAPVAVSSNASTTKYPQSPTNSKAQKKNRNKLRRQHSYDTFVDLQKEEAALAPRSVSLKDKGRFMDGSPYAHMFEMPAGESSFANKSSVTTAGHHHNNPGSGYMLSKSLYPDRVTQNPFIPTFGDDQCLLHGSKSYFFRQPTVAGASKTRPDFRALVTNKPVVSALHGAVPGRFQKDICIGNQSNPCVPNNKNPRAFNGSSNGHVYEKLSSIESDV
GluN1/2A/2B triheteromeric (1/2AB) receptors, sequence (Q00959 23-1464, other chains not shown): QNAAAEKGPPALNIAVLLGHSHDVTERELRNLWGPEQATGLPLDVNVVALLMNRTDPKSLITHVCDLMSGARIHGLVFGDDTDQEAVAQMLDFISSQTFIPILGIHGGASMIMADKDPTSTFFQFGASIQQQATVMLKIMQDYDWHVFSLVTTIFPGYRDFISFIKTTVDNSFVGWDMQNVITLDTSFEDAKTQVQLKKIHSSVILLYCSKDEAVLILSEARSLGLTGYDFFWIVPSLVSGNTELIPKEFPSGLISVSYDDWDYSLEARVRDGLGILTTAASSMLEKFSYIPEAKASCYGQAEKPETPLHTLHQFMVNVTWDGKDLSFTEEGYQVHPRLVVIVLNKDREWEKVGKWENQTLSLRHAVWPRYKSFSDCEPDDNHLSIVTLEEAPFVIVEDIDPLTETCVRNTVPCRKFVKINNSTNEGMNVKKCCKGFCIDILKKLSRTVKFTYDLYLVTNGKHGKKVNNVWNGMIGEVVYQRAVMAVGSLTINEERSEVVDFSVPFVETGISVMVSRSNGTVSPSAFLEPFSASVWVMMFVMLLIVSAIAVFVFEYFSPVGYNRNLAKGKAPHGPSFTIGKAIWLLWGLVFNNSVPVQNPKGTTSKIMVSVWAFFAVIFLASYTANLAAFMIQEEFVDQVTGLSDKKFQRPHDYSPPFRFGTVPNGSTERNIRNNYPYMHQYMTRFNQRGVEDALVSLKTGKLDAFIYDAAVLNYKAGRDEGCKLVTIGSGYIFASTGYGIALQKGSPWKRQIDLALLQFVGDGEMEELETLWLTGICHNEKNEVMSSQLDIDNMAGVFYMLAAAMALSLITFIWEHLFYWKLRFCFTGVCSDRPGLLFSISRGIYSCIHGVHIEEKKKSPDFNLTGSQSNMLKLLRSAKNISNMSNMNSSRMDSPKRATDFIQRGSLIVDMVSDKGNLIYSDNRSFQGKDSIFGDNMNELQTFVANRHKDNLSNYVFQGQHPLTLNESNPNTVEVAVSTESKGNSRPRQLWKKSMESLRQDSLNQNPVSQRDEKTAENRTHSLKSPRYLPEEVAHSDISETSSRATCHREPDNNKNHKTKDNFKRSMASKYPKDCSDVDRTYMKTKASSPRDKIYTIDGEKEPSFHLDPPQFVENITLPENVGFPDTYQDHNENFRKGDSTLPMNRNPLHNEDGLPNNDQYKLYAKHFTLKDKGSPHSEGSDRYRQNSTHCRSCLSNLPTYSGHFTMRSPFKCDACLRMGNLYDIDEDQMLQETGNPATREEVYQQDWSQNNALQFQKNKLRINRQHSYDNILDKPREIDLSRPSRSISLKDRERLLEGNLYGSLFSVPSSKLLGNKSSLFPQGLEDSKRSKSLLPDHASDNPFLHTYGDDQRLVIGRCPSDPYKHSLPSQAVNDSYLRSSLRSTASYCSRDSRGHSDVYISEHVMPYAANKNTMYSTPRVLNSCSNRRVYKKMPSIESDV

SMILES: O=C(NC(=S)N1CCCCC1c1cccnc1)c1ccc(F)cc1 (stereo not drawn) [CNS4, 4‐fluoro‐N‐(2‐(pyridin‐3‐yl)piperidine‐1‐carbonothioyl)benzamide]
- Na^+ signal, mean rfu ([1]; 100 µM CNS4 + 0.3 µM NMDA, p < .0001 vs CNS4 with no NMDA (412544)): 391591 rfu
- Na^+ signal compared to 300 µM NMDA alone ([1]; 100 µM CNS4 + 30–300 µM NMDA): significantly higher Na^+ signal
- Na^+ signal, mean rfu ([1]; 100 µM CNS4 + glutamate + MK801, p = .0024 vs glutamate + MK801 ([…])): 519331 rfu
- Na^+ signal, mean rfu ([1]; 100 µM CNS4 alone, Figure 8B): 538755 rfu
- Na^+ signal, mean rfu ([1]; 100 µM CNS4 with no NMDA, Figure 7A): 412544 rfu
- current response, agonist alone induced maximum current normalized to 100% (GluN1/2C; [5]): 506.34% ± 52.9%
- potentiation of receptor current (GluN1/2C; [6]): < 20%
- current response, agonist alone induced maximum current normalized to 100% (GluN1/2A [2]; [7]): negligible effect
- current response, agonist alone induced maximum current normalized to 100% (GluN1/2A [2]; [8]): 186.08% ± 23.5%
- current response, agonist alone induced maximum current normalized to 100% (GluN1/2A [2]; [9]): 122.87% ± 9.9%
- current response, agonist alone induced maximum current normalized to 100% [3, 7]: 264.37% ± 16.9%
- current response, agonist alone induced maximum current normalized to 100% [3, 8]: 122.65% ± 1.9%
- current response, agonist alone induced maximum current normalized to 100% [3, 9]: 144.47% ± 11.8%
- current response, agonist alone induced maximum current normalized to 100% (GluN1/2D; [5]): 850.35% ± 133.9%
- potentiation of receptor current (GluN1/2D; [6]): < 20%
- voltage dependence of effect on current amplitude (GluN1/2B; [10]): no voltage dependence effect
- reversal potential (GluN1/2B; agonist (100 µM glutamate + 100 µM glycine) + 40 µM MgCl2 + 100 µM CNS4, without CNS4 −11.66 ± 1.25, p > .05): −6.9 ± 0.74 mv
- reversal potential (GluN1/2B; agonist (100 µM glutamate + 100 µM glycine) + 100 µM CNS4, absence of Mg^2+, agonist alone −11.66 ± 1.55, p > .05): −10.89 ± 1.9 mv
- voltage dependence of effect on current amplitude (GluN1/2A [4]; [10]): no voltage dependence effect
- reversal potential (GluN1/2A [4]; agonist (100 µM glutamate + 100 µM glycine) + 40 µM MgCl2 + 100 µM CNS4, without CNS4 −20.06 ± 2.6, p > .05): −17.57 ± 2.0 mv
- reversal potential (GluN1/2A [4]; agonist (100 µM glutamate + 100 µM glycine) + 100 µM CNS4, absence of Mg^2+, agonist alone −17.42 ± 2.2, p > .05): −17.54 ± 1.8 mv
